{"source": "patent US20140294729A1", "about": "“METHODS FOR IDENTIFICATION AND USE OF AGENTS TARGETING CANCER STEM CELLS” (Whitehead Institute for Biomedical Research, priority 2008, published 2014)", "system": "HMLER cells", "test": "Growth rate of HMLER cultures after treatment", "format": "cell-based, human", "conditions": "FIG. 6B", "method": "FIGS. 6A and 6B depict effects of salinomycin on the CSC population in HMLER cell line. (FIG. 6A) HMLER cells were treated with vehicle control (dmso), salinomycin or paclitaxel at the indicated concentrations for 15 days. FACS analysis were performed at the end of treatment to gauge the CD44+/CD24− CSC population (right panels). Note that salinomycin decreases the CD44+/CD24− population from a basal of 4.9% to 0.2%. Treated cultures were also subjected to the mammosphere formation assay (left panels). Number of mammopsheres formed per 1000 cells from each culture are indicated below the representative photographs of assay wells. (FIG. 6B) Growth rates of HMLER cultures after treatment with vehicle control (dmso), salinomycin or paclitaxel at the indicated concentrations in (A) for 15 days.\nWe then turned to the critical question of whether the compounds had the general ability to inhibit CSCs in breast cancer cell lines. […] We next compared the effects of salinomycin, control vehicle DMSO and paclitaxel on HMLER cells. […] The CD44+/CD24− fraction was thus 360-fold lower following treatment with salinomycin than with paclitaxel (FIG. 6A). Proliferation of the bulk population was not inhibited following treatment with salinomycin relative to either vehicle- or paclitaxel-treatment (FIG. 6B)."}
{"smiles": "CC[C@@H](C(=O)[C@@H](C)[C@@H](O)[C@H](C)[C@@H]1O[C@@H]([C@@H](CC)C(=O)O)CC[C@@H]1C)[C@H]1O[C@]2(C=C[C@@H](O)[C@]3(CC[C@@](C)([C@H]4CC[C@](O)(CC)[C@H](C)O4)O3)O2)[C@H](C)C[C@@H]1C", "note": "[salinomycin]", "values": [{"measurement": "proliferation of the bulk population relative to vehicle- or paclitaxel-treatment", "value": "not inhibited"}]}
